This is an account of results in ChEMBL document CHEMBL1144970, “Protective effects of steroid saponins from Paris polyphylla var. yunnanensis on ethanol- or indomethacin-induced gastric mucosal lesions in rats: structural requirement for activity and mode of action” (Bioorg Med Chem Lett, 2003).

For data set [1], the system named is Rattus norvegicus. Kind of data set: Volume of the gastric juice (Control value = 4.7+/-0.4) of stomach content of pylorus ligated rats was measured (20 mg/kg po of the Compound was administered 1 hr before the pylorus ligation). It is filed as functional.
The test system of data set [2] is Rattus norvegicus. Kind of data set: Reduction in length (control value = 59.8+/-6) of gastric lesions induced by endomethacin was measured, after administration of 5 mg/kg po in rats. It is filed as functional, Stomach.
The test system of data set [3] is Rattus norvegicus. Kind of data set: Percent inhibition of gastric lesions induced by ethanol was measured, after administration of 10 mg/kg po in rats. It is filed as functional. The settings on record: Stomach.
In data set [4] the test system is Rattus norvegicus. Kind of data set: Percent inhibition of gastric lesions induced by ethanol was measured, after administration of 15 mg/kg po in rats. It counts as functional. The settings on record: Stomach.
Data set [5] deals with Rattus norvegicus. Put plainly: Reduction in length (control value = 59.8+/-6) of gastric lesions induced by endomethacin was measured, after administration of 2.5 mg/kg po in rats. It is filed as functional, Stomach.
Data set [6] has as its system Rattus norvegicus. Put plainly: pH of the gastric juice (Control value = 1.42+/-0.02) of stomach content of pylorus ligated rats was measured (20 mg/kg po of the Compound was administered 1 hr before the pylorus ligation). It is filed as ADME, organism-based. The settings on record: in vivo.
Data set [7] has as its system Rattus norvegicus. Put plainly: Acid output from the stomach (control value = 120.3+/-19.7) in pylorus ligated rats (20 mg/kg po of the Compound was administered 1 hr before the pylorus ligation). It is filed as functional.
Data set [8] relates to Rattus norvegicus. Kind of data set: pH of the gastric juice (Control value = 1.42+/-0.02) of stomach content of pylorus ligated rats was measured (5 mg/kg po of the Compound was administered 1 hr before the pylorus ligation). It counts as ADME, organism-based. The settings on record: in vivo.
Data set [9] relates to Rattus norvegicus. Put plainly: Percent inhibition of gastric lesions induced by endomethacin was measured, after administration of 5 mg/kg po in rats. It counts as functional. The settings on record: Stomach.
Data set [10] deals with Rattus norvegicus. Put plainly: Reduction in length (control value = 159.2+/-21) of gastric lesions induced by ethanol was measured, after administration of 15 mg/kg po in rats. It is filed as functional, Stomach.
The test system of data set [11] is Rattus norvegicus. Kind of data set: Reduction in length (control value = 159.2+/-21) of gastric lesions induced by endomethacin was measured, after administration of 20 mg/kg po in rats. It counts as functional, Stomach.
The subject of data set [12] is Rattus norvegicus. Kind of data set: Percent inhibition of gastric lesions induced by ethanol was measured, after administration of 20 mg/kg po in rats. It is filed as functional. Particulars: Stomach.
Data set [13] deals with Rattus norvegicus. Kind of data set: Volume of the gastric juice (Control value = 4.7+/-0.4) of stomach content of pylorus ligated rats was measured (5 mg/kg po of the Compound was administered 1 hr before the pylorus ligation). It counts as functional.
Data set [14] deals with Rattus norvegicus. Kind of data set: Percent inhibition of gastric lesions induced by endomethacin was measured, after administration of 2.5 mg/kg po in rats. The settings on record: Stomach. It counts as functional.
For data set [15], the system named is Rattus norvegicus. Put plainly: pH of the gastric juice (Control value = 1.42+/-0.02) of stomach content of pylorus ligated rats was measured (10 mg/kg po of the Compound was administered 1 hr before the pylorus ligation). It is filed as ADME, organism-based. The settings on record: in vivo.
Data set [16] has as its system Rattus norvegicus. Put plainly: Volume of the gastric juice (Control value = 4.7+/-0.4) of stomach content of pylorus ligated rats was measured (10 mg/kg po of the Compound was administered 1 hr before the pylorus ligation). It counts as functional.
In data set [17] the test system is Rattus norvegicus. Put plainly: Acid output from the stomach (control value = 120.3+/-19.7) in pylorus ligated rats (10 mg/kg po of the Compound was administered 1 hr before the pylorus ligation). It counts as functional.
Data set [18] relates to Rattus norvegicus. Put plainly: Reduction in length (control value = 159.2+/-21) of gastric lesions induced by ethanol was measured, after administration of 10 mg/kg po in rats. It is filed as functional, Stomach.
Data set [19] has as its system Rattus norvegicus. Kind of data set: Reduction in length (control value = 59.8+/-6) of gastric lesions induced by endomethacin was measured, after administration of 7.5 mg/kg po in rats. It is filed as functional, Stomach.
The test system of data set [20] is Rattus norvegicus. Put plainly: Percent inhibition of gastric lesions induced by endomethacin was measured, after administration of 7.5 mg/kg po in rats. It is filed as functional. Particulars: Stomach.
In data set [21] the test system is Rattus norvegicus. Put plainly: Acid output from the stomach (control value = 120.3+/-19.7) in pylorus ligated rats (5 mg/kg po of the Compound was administered 1 hr before the pylorus ligation). It is filed as functional.
Data set [22] concerns Rattus norvegicus. Put plainly: Percent inhibition of gastric lesions induced by endomethacin was measured, after administration of 10 mg/kg po in rats. The settings on record: Stomach. It counts as functional.

What is called inhibition in vivo is the drop in the measured response relative to a control, in per cent.

For the molecule `COc1ccc2[nH]c([S+]([O-])Cc3ncc(C)c(OC)c3C)nc2c1` (configuration not stated) [OMEPRAZOLE], the results for the Volume in the data set with Rattus norvegicus [1], in the data set on Rattus norvegicus [13] and in the data set on Rattus norvegicus [16] were 2.2 ml 4hr-1, 3.3 ml 4hr-1 and 2.5 ml 4hr-1, respectively. Besides, the Length in the data set on Rattus norvegicus [2] amounted to 24.6 mm; in the data set on Rattus norvegicus [5] it was 34.4 mm; in the data set with Rattus norvegicus [10] it was 28.6 mm; in the data set with Rattus norvegicus [11], 16.9 mm; with Rattus norvegicus [18] it was 90.6 mm; in the data set on Rattus norvegicus [19] it was 8 mm. The inhibition in vivo at 10 mg/kg stood at 43.1% in the data set with Rattus norvegicus [3] and 98.2% in the data set with Rattus norvegicus [22]. In the data set on Rattus norvegicus [4], the inhibition in vivo at 15 mg/kg came out at 82%. Further, the pH is on record as 5.54 in the data set on Rattus norvegicus [6], 1.63 in the data set on Rattus norvegicus [8] and 1.8 with Rattus norvegicus [15]. The Acid output with Rattus norvegicus [7] stood at 14.6 u equiv hr-1; in the data set with Rattus norvegicus [17], 46.8 u equiv hr-1; in the data set on Rattus norvegicus [21] it was 62.6 u equiv hr-1. The same molecule came in with an inhibition in vivo at 5 mg/kg in the data set with Rattus norvegicus [9] of 58.9%. The inhibition in vivo at 20 mg/kg with Rattus norvegicus [12] stood at 89.4%. This molecule also showed an inhibition in vivo at 2.5 mg/kg in the data set with Rattus norvegicus [14] of 42.5%. Besides, testing at 7.5 mg/kg with Rattus norvegicus [20] gave an inhibition in vivo of 86.6%.
